9 compounds from patent US5929097A, “Preparation and use of ortho-sulfonamido aryl hydroxamic acids as matrix metalloproteinase and tace inhibitors” (American Cyanamid Company, priority 1997, dated 1999) can be followed below.

Like-named read-outs stand apart in the source and are kept apart here.

One assay concerns MMP9. Nature of the assay: In vivo MMP inhibition (implanted dialysis tubing containing MMP enzyme). The arrangement: species or system rat (Sprague-Dawley) or mouse (CD-1).
In the next assay the target is MMP-9 (Homo sapiens, UniProt P14780). Nature of the assay: biochemical.
Sequence of MMP-9 (P14780 94-707): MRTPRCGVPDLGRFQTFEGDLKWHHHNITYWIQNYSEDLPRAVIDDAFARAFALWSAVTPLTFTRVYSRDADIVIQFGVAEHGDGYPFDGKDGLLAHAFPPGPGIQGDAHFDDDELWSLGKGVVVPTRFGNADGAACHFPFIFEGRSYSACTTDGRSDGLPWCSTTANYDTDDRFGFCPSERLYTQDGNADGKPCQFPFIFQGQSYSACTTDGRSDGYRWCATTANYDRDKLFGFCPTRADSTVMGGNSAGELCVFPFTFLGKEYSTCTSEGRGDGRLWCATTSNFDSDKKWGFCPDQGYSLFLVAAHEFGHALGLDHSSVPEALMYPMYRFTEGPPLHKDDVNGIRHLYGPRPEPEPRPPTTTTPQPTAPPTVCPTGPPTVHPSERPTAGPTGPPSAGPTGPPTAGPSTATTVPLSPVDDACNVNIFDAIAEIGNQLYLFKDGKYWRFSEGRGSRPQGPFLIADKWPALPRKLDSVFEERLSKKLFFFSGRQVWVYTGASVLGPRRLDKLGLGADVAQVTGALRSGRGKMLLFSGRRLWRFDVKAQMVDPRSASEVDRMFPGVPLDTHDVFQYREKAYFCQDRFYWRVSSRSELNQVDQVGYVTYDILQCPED
The target of another assay is T1, MMP-1 (Homo sapiens, UniProt P03956).
T1 sequence (P03956 100-469): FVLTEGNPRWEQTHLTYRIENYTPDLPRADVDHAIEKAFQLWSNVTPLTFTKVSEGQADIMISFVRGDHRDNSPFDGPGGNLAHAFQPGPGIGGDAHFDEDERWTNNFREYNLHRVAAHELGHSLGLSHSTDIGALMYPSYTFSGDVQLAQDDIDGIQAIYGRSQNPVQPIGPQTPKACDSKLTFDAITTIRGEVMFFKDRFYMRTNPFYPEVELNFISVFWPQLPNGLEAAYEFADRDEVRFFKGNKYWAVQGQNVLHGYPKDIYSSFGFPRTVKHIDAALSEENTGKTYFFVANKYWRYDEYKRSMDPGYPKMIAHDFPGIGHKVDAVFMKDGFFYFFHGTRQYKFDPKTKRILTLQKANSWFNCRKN
Nature of the assay: MMP-1 inhibition (thiopeptide/DTNB or fluorescent peptide substrate). Format: biochemical.

Another assay has as its target T2, TACE (Homo sapiens, UniProt P78536).
T2 construct: purchased Immunex
Nature of the assay: TACE inhibition (fluorescent peptidyl substrate). It counts as biochemical.

Another assay addresses MMP-13 (Homo sapiens, UniProt P45452). Nature of the assay: MMP-13 inhibition (thiopeptide/DTNB or fluorescent peptide substrate). It counts as biochemical.

T2 sequence (P78536 215-824): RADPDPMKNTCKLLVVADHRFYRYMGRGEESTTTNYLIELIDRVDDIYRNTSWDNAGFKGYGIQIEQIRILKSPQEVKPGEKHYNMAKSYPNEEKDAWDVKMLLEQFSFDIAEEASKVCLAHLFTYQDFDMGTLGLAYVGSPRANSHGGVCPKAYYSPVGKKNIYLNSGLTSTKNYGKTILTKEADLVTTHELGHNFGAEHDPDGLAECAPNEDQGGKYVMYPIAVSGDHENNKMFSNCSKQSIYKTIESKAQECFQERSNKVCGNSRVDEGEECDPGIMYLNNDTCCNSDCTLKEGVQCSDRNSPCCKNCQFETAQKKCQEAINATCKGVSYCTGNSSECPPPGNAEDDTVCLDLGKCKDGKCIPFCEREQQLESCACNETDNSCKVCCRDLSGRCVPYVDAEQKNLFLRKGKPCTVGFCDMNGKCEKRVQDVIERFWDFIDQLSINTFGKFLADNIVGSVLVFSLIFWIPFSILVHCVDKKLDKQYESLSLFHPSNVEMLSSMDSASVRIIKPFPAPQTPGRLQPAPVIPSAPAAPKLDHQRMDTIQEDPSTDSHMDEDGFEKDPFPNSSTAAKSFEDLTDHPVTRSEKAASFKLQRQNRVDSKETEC
Description for MMP-13: (§1) The enzyme activity is measured by the rate of the color increase. The thiopeptide substrate is made up fresh as a 20 mM stock in 100% DMSO and the DTNB is dissolved in 100% DMSO as a 100 mM stock and stored in the dark at room temperature. Both the substrate and DTNB are diluted together to 1 mM with substrate buffer (50 mM HEPES pH 7.5, 5 mM CaCl2) before use. The stock of enzyme is diluted with assay buffer (50 mM HEPES, pH 7.5, 5 mM CaCl2, 0.02% Brij) to the desired final concentration.
Alternatively, a fluorescent peptide substrate is used. In this assay, the peptide substrate contains a fluorescent group and a quenching group. Upon cleavage of the substrate by an MMP, the fluorescence that is generated is quantitated on the fluorescence plate reader. The assay is run in HCBC assay buffer (50 mM HEPES, pH 7.0, 5 mM Ca^+2, 0.02% Brij, 0.5% Cysteine), with human recombinant MMP-1, MMP-9, or MMP-13. The substrate is dissolved in methanol and stored frozen in 1 mM aliquots. For the assay, substrate and enzymes are diluted in HCBC buffer to the desired concentrations. […]
For either the thiopeptide or fluorescent peptide assays, the slope of the line is calculated and represents the reaction rate. […] The mean (x±sem) of the control rate is calculated and compared for statistical significance (p<0.05) with drug-treated rates using Dunnett's multiple comparison test.
Description for MMP-9: as §1
Alternatively, a fluorescent peptide substrate is used. In this assay, the peptide substrate contains a fluorescent group and a quenching group. Upon cleavage of the substrate by an MMP, the fluorescence that is generated is quantitated on the fluorescence plate reader. The assay is run in HCBC assay buffer (50 mM HEPES, pH 7.0, 5 mM Ca^+2, 0.02% Brij, 0.5% Cysteine), with human recombinant MMP-1, MMP-9, or MMP-13. The substrate is dissolved in methanol and stored frozen in 1 mM aliquots. For the assay, substrate and enzymes are diluted in HCBC buffer to the desired concentrations. Compounds are added to the 96 well plate containing enzyme and the reaction is started by the addition of substrate.
For either the thiopeptide or fluorescent peptide assays, the slope of the line is calculated and represents the reaction rate. The linearity of the reaction rate is confirmed (r^2 >0.85). The mean (x±sem) of the control rate is calculated and compared for statistical significance (p<0.05) with drug-treated rates using Dunnett's multiple comparison test.
Description for MMP9: Drugs are administered PO, IP, SC or IV through a canula in the jugular vein. […] Contents of the dialysis tubing is collected and enzyme activity assayed.
Enzyme reaction rates for each dialysis tube are calculated. Tubes from at least 3 different animals are used to calculate the meani sem. Statistical significance (p<0.05) of vehicle-treated animals versus drug-treated animals is determined by analysis of variance.
Description for TACE: Procedure for Measuring TACE Inhibition
Using 96-well black microtiter plates, each well receives a solution composed of 10 μL TACE (Immunex, final concentration 1 μg/mL), 70 μL Tris buffer, pH 7.4 containing 10% glycerol (final concentration 10 mM), and 10 μL of test compound solution in DMSO (final concentration 1 μM, DMSO concentration <1%) and incubated for 10 minutes at room temperature.
The reaction is read (excitation 340 nm, emission 420 nm) for 10 min. and the increase in fluorescence over time is plotted as a linear line. The slope of the line is calculated and represents the reaction rate.
The linearity of the reaction rate is confined (r^2 >0.85). The mean (x±sem) of the control rate is calculated and compared for statistical significance (p<0.05) with drug-treated rates using Dunnert's multiple comparison test.

Consider `COc1ccc(S(=O)(=O)N(Cc2ccccc2)c2c(C)cc(Br)cc2C(=O)NO)cc1` [Example 25, 2-[Benzyl-(4-methoxy-benzenesulfonyl)-amino]-5-bromo-N-hydroxy-3-methyl-benzamide], for which the “in-vivo MMP % inhibition vs. MMP9” value with MMP9 (100 mg/kg, ip) turned out to be 32%.

For the compound `COc1ccc(S(=O)(=O)N(Cc2cccnc2)c2c(C)cc(Br)cc2C(=O)NO)cc1` [Example 91, 5-Bromo-N-hydroxy-2-[(4-methoxy-benzenesulfonyl)-pyridin-3-ylmethyl-amino]-3-methyl-benzamide], the “in-vivo MMP % inhibition vs. MMP9” value in the assay on MMP9 (100 mg/kg, po) is 55%. Regarding `Cc1cccc(C(=O)NO)c1N(C)S(=O)(=O)c1ccc(Oc2ccncc2)cc1` [Example 417], the IC50 – broadly, the concentration at which inhibition is half-maximal – was found to be 0.0068 µM against MMP-9 and 3.25 µM against MMP-1. Turning to `CCCCCCCCN(c1c(CN2CCN(C)CC2)cccc1C(=O)NO)S(=O)(=O)c1ccc(OC)cc1` [Example 325, N-Hydroxy-2-[(4-methoxy-benzenesulfonyl)-octyl-amino] -3-(4-methyl-piperazin-1-ylmethyl)-benzamide], 0.02 µM corresponded to half-maximal inhibition on MMP-1 (IC50). As to `COc1ccc(S(=O)(=O)N(Cc2ccccc2)c2c(Cl)cccc2C(=O)NO)cc1` [Example 24, 2-[Benzyl-(4-methoxy-benzenesulfonyl)-amino]-3-chloro-N-hydroxy-benzamide], the half-inhibitory concentration (IC50) on TACE (read-out: TACE IC50) was found to be 1 µM. As for `COc1ccc(S(=O)(=O)N(Cc2cccnc2)c2c(C(=O)NO)cc(C)cc2-c2cccs2)cc1` [Example 145, N-Hydroxy-2-[(4-methoxy-benzenesulfonyl)-pyridin-3-ylmethyl-amino]-5-methyl-3-thiophen-2-yl-benzamide], the concentration for half-maximal inhibition (IC50) against MMP-9 turned out to be 0.007 µM; on MMP-13 (read-out: MMP-13 IC50), 0.003 µM; against MMP-1, 0.055 µM; on TACE (read-out: TACE IC50), 0.158 µM.

As for `COc1ccc(S(=O)(=O)N(Cc2ccccc2)c2c(OCc3ccccc3)cccc2C(=O)NO)cc1` [Example 34, 2-[Benzyl-(4-methoxy-benzenesulfonyl)-amino]-3-benzyloxy-N-hydroxy-benzamide], the “in-vivo MMP % inhibition vs. MMP9” value in the assay with MMP9 (100 mg/kg, ip) came out at 31.6%.

For the compound `CCCN(c1c(C)cc(C)cc1C(=O)NO)S(=O)(=O)c1ccc(OC)cc1` [Example 117, N-Hydroxy-2-[(4-methoxy-benzenesulfonyl)-propyl-amino]-3,5-dimethyl-benzamide], the “in-vivo MMP % inhibition vs. MMP9” value with MMP9 (100 mg/kg, ip) was 28.3%. Take `COc1ccc(S(=O)(=O)N(Cc2cccnc2)c2c(OCc3cccnc3)cccc2C(=O)NO)cc1` [Example 61]: the “in-vivo MMP % inhibition vs. MMP9” value is given as 46% in the assay with MMP9 (20 mg/kg, po) and 59% in the assay on MMP9 (50 mg/kg, po). The IC50 is 0.034 µM against MMP-9, 0.033 µM against MMP-13 and 0.289 µM at TACE.
